One series concerns the target T1, HDAC 6 (Homo sapiens, UniProt Q9UBN7).
T1 sequence (Q9UBN7 1-1215): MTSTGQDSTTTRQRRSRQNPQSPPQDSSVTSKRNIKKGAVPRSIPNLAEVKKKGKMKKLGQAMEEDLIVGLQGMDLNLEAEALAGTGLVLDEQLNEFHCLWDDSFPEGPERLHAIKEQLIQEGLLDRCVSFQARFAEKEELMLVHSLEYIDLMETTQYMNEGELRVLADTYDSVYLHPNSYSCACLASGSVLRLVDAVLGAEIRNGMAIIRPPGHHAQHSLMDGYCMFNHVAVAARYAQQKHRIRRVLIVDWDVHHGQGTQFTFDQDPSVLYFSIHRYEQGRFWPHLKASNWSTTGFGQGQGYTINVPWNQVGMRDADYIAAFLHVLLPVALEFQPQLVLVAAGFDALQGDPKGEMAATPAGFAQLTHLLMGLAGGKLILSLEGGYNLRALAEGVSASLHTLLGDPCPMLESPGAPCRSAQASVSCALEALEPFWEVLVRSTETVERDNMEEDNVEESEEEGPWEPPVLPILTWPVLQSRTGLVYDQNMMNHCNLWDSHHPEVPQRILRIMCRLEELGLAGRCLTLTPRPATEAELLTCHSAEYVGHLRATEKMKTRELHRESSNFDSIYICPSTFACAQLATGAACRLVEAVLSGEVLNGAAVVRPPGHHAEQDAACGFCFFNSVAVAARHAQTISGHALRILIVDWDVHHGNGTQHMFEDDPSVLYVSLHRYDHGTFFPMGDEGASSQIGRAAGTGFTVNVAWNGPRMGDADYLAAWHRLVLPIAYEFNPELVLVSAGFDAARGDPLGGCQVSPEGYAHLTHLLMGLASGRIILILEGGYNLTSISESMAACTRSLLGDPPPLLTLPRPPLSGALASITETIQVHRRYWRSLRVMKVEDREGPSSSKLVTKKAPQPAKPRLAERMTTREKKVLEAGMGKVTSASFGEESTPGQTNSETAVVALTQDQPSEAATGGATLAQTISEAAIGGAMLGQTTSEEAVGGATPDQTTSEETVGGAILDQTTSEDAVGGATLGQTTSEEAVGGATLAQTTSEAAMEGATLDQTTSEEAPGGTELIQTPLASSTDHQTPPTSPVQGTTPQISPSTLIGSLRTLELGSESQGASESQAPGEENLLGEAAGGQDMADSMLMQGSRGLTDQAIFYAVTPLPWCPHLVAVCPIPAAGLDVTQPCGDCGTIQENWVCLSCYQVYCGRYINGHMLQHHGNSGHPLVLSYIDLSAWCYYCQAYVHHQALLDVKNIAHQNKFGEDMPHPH
The experiment in a line: In vitro HDAC enzyme inhibition, fluorescent deacetylation assay (HDAC6). Type of series: biochemical. Here is the method: (§1) The degree of deacetylation of the acetylated substrate was determined by detecting the changes in the intensity of the fluorescent signal in the 384-well microplate using EnVision® microplate reader, the half inhibitory comcentration IC50 value of the compound inhibitor was used as a reference to evaluate the inhibitory effect of the compound on the histone deacetylase (HDAC). The compound was diluted by DMSO to 2 mM, and then added to 384 compound plate, then the solution was diluted 3 times, 10 gradients and double duplicate wells using a Bravo automated liquid workstation; then 0.15 μL of the compound was transferred from 384 compound plate to 384 assay plate by Echo liquid handler. 1.2 configuration of the assay buffer: the configuration contains 20 mM Hepes, 137 mM NaCl, 2.7 mM KCl, 1 mM MgCl2, 0.05% BSA, 0.5 mM TCEP of 1× assay buffer, each of which is represented by final concentration thereof. The rapidly dissolving histone deacetylase was added to the 1× assay buffer and mixed well. The 1.5× enzyme mixture was added to a 20 μL to 384-well assay plate, mixed by centrifugation, placed in a 23° C. incubator, and the enzyme was incubated with the compound for 20 minutes. The 3× substrate solution was configured by 1× assay buffer, and then mixed well. 10 μL was added to a 384-well assay plate, mixed by centrifugation, and placed in a 23° C. incubator for 90 minutes for reaction. The terminating mixture of trypsin and the positive compound SAHA (Vorinostat, vorinostat) was configured with 1× assay buffer and mixed well. The reaction was terminated by adding 30 μL to a 384-well assay plate, then centrifuged, and placed in a 23° C. incubator for 60 minutes. After termination of the reaction for 60 minutes, the 384-well assay plate was placed on an Envision micro-plate reader and the fluorescence value was read. 1.7 Data analysation: the data was analyzed by using XLfit5 software to calculate the IC50 value of the compound.

The target of a further series is HDAC 1 (Homo sapiens, UniProt Q13547). The experiment in a line: In vitro HDAC enzyme inhibition, fluorescent deacetylation assay (HDAC1). The format is biochemical. Here is the method: as §1
The nature of series [1]: Pharmacokinetic evaluation in male beagle dogs. Type of series: in vivo. Conditions: plasma, male beagle dog. The method, then:
Purpose of the experiment: test the compound's pharmacokinetics in male beagle dogs
Experimental materials: Beagle (male, 6-15 kg, 6 months-4 age, Marshall Bioresources, Beijing, China)
The Beagle's pharmacokinetic characteristics after oral administration of the compound were tested by a standard scheme. In the experiment, the candidate compound was formulated into a uniform suspension and administered to a beagle dog for single oral administration. Oral menstruum was formed by a certain proportion of polyethylene glycol-polyoxyethylene castor oil aqueous solution. Blood samples within 24 hours was collected, then centrifuged at 3000 g for 10 minutes, the supernatant was separated to obtain plasma samples, 30 μL of plasma samples was added into 300 μL of internal standard acetonitrile solution to precipitate protein, 30 μL of supernatant was obtained after vortex and centrifugation, and then equal volume of water was added, followed by vortex and centrifugation for another time to collect the supernatant, and the plasma concentration was quantitatively analyzed by LC-MS/MS analysis, and the pharmacokinetic parameters such as peak concentration, peak-reached time, half-life, and area under the administrating curve were calculated.

Sequence of HDAC 1 (Q13547 whole entry, species assumed): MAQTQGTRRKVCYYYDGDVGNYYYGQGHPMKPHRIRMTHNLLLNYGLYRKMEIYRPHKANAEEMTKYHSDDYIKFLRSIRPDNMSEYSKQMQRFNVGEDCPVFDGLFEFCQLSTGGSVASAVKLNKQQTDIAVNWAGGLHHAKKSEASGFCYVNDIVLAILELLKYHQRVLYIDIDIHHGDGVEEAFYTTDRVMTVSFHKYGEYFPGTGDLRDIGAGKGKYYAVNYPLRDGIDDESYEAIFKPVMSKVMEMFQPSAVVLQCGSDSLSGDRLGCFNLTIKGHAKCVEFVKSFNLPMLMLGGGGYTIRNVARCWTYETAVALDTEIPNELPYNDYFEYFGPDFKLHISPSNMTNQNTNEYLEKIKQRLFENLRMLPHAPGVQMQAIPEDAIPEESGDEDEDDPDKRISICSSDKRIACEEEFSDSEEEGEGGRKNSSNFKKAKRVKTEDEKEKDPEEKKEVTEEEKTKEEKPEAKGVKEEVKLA

The IC50 is the point on the concentration scale where inhibition reaches its midpoint. For `CC(C)C1(c2ccn(Cc3ccc(C(=O)NO)cc3)c(=O)c2)CCCO1` (centres unmarked) [Embodiment1], the IC50 is ≤ 10 nM against HDAC 6 and > 200 nM against HDAC 1.

As to `O=C(NO)c1ccc(CNC(=O)c2ccc(C3(c4ccc(F)cc4)CCCO3)cc2)cc1` (single isomer, unassigned) [Embodiment22], the figures for the IC50 on HDAC 6 and against HDAC 1 were ≤ 10 nM and 50 to 200 nM, respectively.

With `O=C(NO)c1ccc(CNc2ccc(C3(c4ccc(F)cc4)CCCO3)cc2)cc1` (centres unmarked) [Embodiment23], the IC50 against HDAC 6 was 10 to 50 nM; at HDAC 1, > 200 nM.

Turning to `CC1(c2ccn(Cc3ccc(C(=O)NO)cc3)c(=O)c2)CCCO1` (centres unmarked) [Embodiment2], the IC50 is ≤ 10 nM against HDAC 6 and > 200 nM against HDAC 1.

As to `O=C(NO)c1ccc(Cn2ccc(C3(c4ccc(F)cc4)CCCO3)cc2=O)cc1` (centres unmarked) [Embodiment3], the IC50 against HDAC 6 was ≤ 10 nM; on HDAC 1, 50 to 200 nM.

As for `O=C(NO)c1ccc(Cn2ccc(C3(c4ccc(F)cc4)COCCO3)cc2=O)cc1` (centres unmarked) [Embodiment17], the IC50 against HDAC 6 was ≤ 10 nM; on HDAC 1, 50 to 200 nM.

As to `O=C(NO)c1ccc(Cn2ccc(C3(c4c(F)cc(F)cc4F)CCCO3)cc2=O)cc1` (centres unmarked) [Embodiment10], the IC50 against HDAC 6 was 10 to 50 nM; against HDAC 1 it was > 200 nM.

`O=C(NO)c1cnc(Cn2ccc(C3(c4ccc(F)cc4)CCCO3)cc2=O)nc1` (centres unmarked) [Embodiment8]: the results for the IC50 against HDAC 6 and on HDAC 1 were ≤ 10 nM and > 200 nM, respectively.

`O=C(NO)c1ccc(Cn2ccc(C3(c4ccc(F)cc4)CCO3)c(F)c2=O)cc1` (centres unmarked) [Embodiment13]: the IC50 is ≤ 10 nM against HDAC 6 and 50 to 200 nM at HDAC 1.

Turning to `O=C(NO)c1ccc(NC(=O)c2ccc(C3(c4ccc(F)cc4)CCCO3)cc2)cc1` (centres unmarked) [Embodiment25], the values for the IC50 at HDAC 6 and at HDAC 1 were 10 to 50 nM and > 200 nM, respectively.

`O=C(NO)c1ccc(Cn2ccc(C3(c4ccc(F)cc4)CCCO3)cc2=O)nc1` (centres unmarked) [Embodiment7]: the IC50 was ≤ 10 nM against HDAC 6 and > 200 nM on HDAC 1.

Take `O=C(NO)c1ccc(Nc2ccc(C3(c4ccc(F)cc4)CCCO3)cc2)cc1` (centres unmarked) [Embodiment24]: the IC50 at HDAC 6 is 10 to 50 nM; on HDAC 1, > 200 nM.

`O=C(NO)c1ccc(Cn2ccc(C3(c4ccc(F)cc4F)CCCO3)cc2=O)cc1` (centres unmarked) [Embodiment6]: the values for the IC50 against HDAC 6 and on HDAC 1 were ≤ 10 nM and 50 to 200 nM, respectively.

Regarding `O=C(NO)c1ccc(Cn2ccc(C3(c4ccc(F)cc4)CCO3)cc2=O)cc1` (centres unmarked) [Embodiment12], the IC50 at HDAC 6 was ≤ 10 nM; at HDAC 1, 50 to 200 nM.

In the case of `O=C(NO)c1ccc(Cn2ccc(C3(c4ccccn4)CCCO3)cc2=O)cc1` (centres unmarked) [Embodiment18], the IC50 is ≤ 10 nM at HDAC 6 and 50 to 200 nM against HDAC 1.

In the case of `O=C(NO)c1ccc(Cn2ccc(C3(c4ccc(F)cc4)CCCO3)cc2=O)cn1` (centres unmarked) [Embodiment9], the IC50 against HDAC 6 is 50 to 200 nM; against HDAC 1 it was > 200 nM.

For `O=C(NO)c1ccc(Cn2ccc(C3(c4ccc(F)cc4)CCCO3)c(F)c2=O)cc1` (centres unmarked) [Embodiment14], the results for the IC50 at HDAC 6 and at HDAC 1 were ≤ 10 nM and 50 to 200 nM, respectively.

Turning to `O=C(NO)c1ccc(Cn2ccc(C3(c4ccc(F)cc4)CCCO3)cc2=O)cc1` (single isomer, unassigned) [Embodiment4], the IC50 against HDAC 6 was ≤ 10 nM; against HDAC 1 it was 50 to 200 nM.

Consider `O=C(NO)c1ccc(Cn2ccc(C3(c4ccncc4)CCCO3)cc2=O)cc1` (centres unmarked) [Embodiment19], for which the IC50 was ≤ 10 nM against HDAC 6 and 50 to 200 nM at HDAC 1.

`O=C(NO)c1ccc(CNC(=O)c2ccc(C3(c4ccc(F)cc4)CCCO3)cc2)cc1` (centres unmarked) [Embodiment20]: the figures for the IC50 against HDAC 6 and against HDAC 1 were ≤ 10 nM and 50 to 200 nM, respectively.

On to `O=C(NO)c1ccc(Cn2ccc(C3(c4ccc(F)cc4)CCCO3)cc2=O)cc1` (single isomer, unassigned) [Embodiment5], for which the IC50 against HDAC 6 is ≤ 10 nM; at HDAC 1, 50 to 200 nM.

On to `O=C(NO)c1ccc(CNC(=O)c2ccc(C3(c4ccc(F)cc4)CCCO3)cc2)cc1` (single isomer, unassigned) [Embodiment21], for which the IC50 is ≤ 10 nM on HDAC 6 and 50 to 200 nM against HDAC 1.

Regarding `O=C(NO)c1ccc(Cn2cc(F)c(C3(c4ccc(F)cc4)CCCO3)cc2=O)cc1` (centres unmarked) [Embodiment11], the IC50 against HDAC 6 is ≤ 10 nM; on HDAC 1 it was 50 to 200 nM.

Take `O=C(NO)c1ccc(Cn2ccc(C3(c4ccc(F)cc4)OCCO3)cc2=O)cc1` [Embodiment16]: the IC50 was ≤ 10 nM on HDAC 6 and 50 to 200 nM on HDAC 1.

Broadly, the bioavailability is dose-corrected exposure relative to a reference, in per cent. A word on the clearance: it is a measure of how efficiently the substance is removed, as volume per time. With `O=C(NO)c1ccc(CNC(=O)c2ccc(C3(c4ccc(F)cc4)CCCO3)cn2)cc1` (centres unmarked) [Embodiment26], the IC50 at HDAC 6 was ≤ 10 nM; against HDAC 1 it was 50 to 200 nM. In addition, the half-life in series [1] (oral, read-out: Half-life T1/2 (converted)) was 2.14 h. Also, in series [1] (single oral administration, read-out: Integrated concentration AUC), the AUC was 13.3 µM·h. In addition, in series [1] (single oral administration, read-out: bioavailability F (%)), the bioavailability stood at 53.1%. Further, in series [1] (read-out: Clearance rate), the clearance was 16 mL/min/kg.

For the compound `O=C(NO)c1ccc(Cn2ccc(C3(c4ccc(F)cc4)CCCCO3)cc2=O)cc1` (centres unmarked) [Embodiment15], the IC50 was ≤ 10 nM against HDAC 6 and 50 to 200 nM at HDAC 1.

Values taken from patent US10745389B2, “HDAC6 selective inhibitors, preparation method therefor, and application thereof” (CSTONE PHARMACEUTICALS (SUZHOU) CO., LTD., priority 2017, dated 2020).
